US20170340588A1, “MODULATION OF REGULATORY T CELLS VIA G-COUPLED PROTEIN RECEPTOR 43” (President and Fellows of Harvard College, priority 2013, published 2017)
Read-outs that look alike come from different tables or passages of the source.

Columns and labels:
[1] = Stability of SCFA mix in mouse water bottle over time; assay type: physicochemical; settings: for SCFA mix in mouse water bottle over time, Day 1 / SCFA mix in mouse water bottle over time, Day 4 / SCFA mix in mouse water bottle over time, Day 7 / SCFA mix in mouse water bottle over time, Day 10 / SCFA mix in mouse water bottle over time, Day 14 / SCFA mix in mouse water bottle over time, Day 90: input 200 mM
Procedure: Mice were treated for 21 days with either sodium acetate (150 mM), sodium propionate (150 mM), sodium butyrate (100 mM) or a SCFA mix (67.5 mM acetate, 40 mM Butyrate, 25.9 mM Propionate) in the drinking water. In in vivo drinking water treatment experiments, control mice received pH and sodium-matched water. At the conclusion of the experiment mice were removed from isolators and processed immediately.

[2] = mouse, in vivo
Procedure: At the conclusion of the experiment mice were removed from isolators and processed immediately.
Cecal or small intestinal contents were collected immediately after animals were sacrificed and flash frozen in N2(1). Samples were mashed in 500 μl HPLC grade water and centrifuged at >14,000 x g, the resulting supernatant was then passed through a 0.22 μm syringe filter to remove bacterial cells and debris. Samples we then acidified with 1/10 volume of 0.01M H2SO4, heated and passed through a condenser to isolate volatile compounds within a sample. SCFA analyses were performed using an Agilent 1200 series HPLC and a Poroshell 120 SB C18 column (2.7 μm, 3.0×100mm) with guard column (Agilent Technologies). Sulfuric acid (0.01M) was used as the mobile phase. SCFA concentrations were weight corrected.

colonic Treg (cTreg) = test: Antibiotic (vancomycin) treatment of SPF mice with or without SCFA; assay type: in vivo; settings: SPF mice, vancomycin alone in drinking water
Procedure: Science 341: 1645 (2013). […] The crude cell suspension was loaded onto a 40%/90% Percoll (GE Healthcare) gradient and centrifuged at 720 x g for 25 min at room temperature with acceleration and brake turned off. LP lymphocytes were collected from the 40%/90% interface. Intracellular staining of the transcription factors Foxp3, Helios and T-bet was performed using the Foxp3 Fix/Perm Buffer Set (Biolegend). For detection of intracellular cytokines, cells were first stimulated for 4 h with 50 ng/ml PMA and 1 μg/ml ionomycin in the presence of Brefeldin A (All obtained from Sigma), followed by staining for surface markers. Cells were then fixed and permeabilized using the Foxp3 Fix/Perm Buffer Set (Biolegend) and stained for intracellular cytokines. The following antibodies were used: […] All antibodies were obtained from Biolegend unless otherwise noted. Flow cytometry was performed using LSRII and data were analyzed with FlowJo software (TreeStar, Inc.). Cell sorting was performed using a […] at the Dana-Farber Cancer Institute Flow Cytometry Core.

Structure (SMILES) | SCFA mix in mouse water bottle over time, Input (Day 0) [1] [mM] | SCFA mix in mouse water bottle over time, Day 1 [1] [mM] | SCFA mix in mouse water bottle over time, Day 4 [1] [mM] | SCFA mix in mouse water bottle over time, Day 7 [1] [mM] | SCFA mix in mouse water bottle over time, Day 10 [1] [mM] | SCFA mix in mouse water bottle over time, Day 14 [1] [mM] | SCFA mix in mouse water bottle over time, Day 90 [1] [mM] | SCFA levels, SPF SI [2] [µmol/g] | SCFA levels, cecal contents, ASF [2] [µmol/g] | SCFA levels, cecal contents, GF [2] [µmol/g] | SCFA levels, cecal contents, SPF [2] [µmol/g] | also measured
CC(=O)O [Acetate, acetic acid] | 200 | 195 | 220.1 | 192.2 | 196.3 | 202.5 | 56.1 | 15.19 ± 9.2 | 28.69 ± 8.32 | 2.82 ± 0.534 | 40.66 ± 5.86 | SCFA levels, SPF SI + P [2]: 15.46 ± 3.69 µmol/g; SCFA levels, cecal contents, GF + A [2]: 16.18 ± 4.65 µmol/g; SCFA levels, cecal contents, GF + Mic [2]: 20.83 ± 0.47 µmol/g; SCFA levels, cecal contents, SPF + A [2]: 53.95 ± 1.91 µmol/g; SCFA levels, cecal contents, SPF + Vanco [2]: 8.63 ± 1.73 µmol/g
CCCC(=O)O [Butyrate, butyric acid] | 200 | 203.09 | 202.85 | 202.27 | 202.69 | 202.19 | 38 | 7.183 ± 2.39 | 16.89 ± 1.46 | 2.13 ± 0.598 | 18.52 ± 4.92 | SCFA levels, cecal contents, SPF + B ([2]; BALB/c, 2 weeks): 29.78 ± 6.202 µmol/g; SCFA levels, cecal contents, GF + B ([2]; BALB/c, 21 days): 11.46 ± 1.46 µmol/g; SCFA levels, cecal contents, GF + Mic ([2]; BALB/c, 21 days): 20.6 ± 3.96 µmol/g; SCFA levels, SPF SI + P ([2]; 2 weeks): 6.45 ± 2.11 µmol/g; SCFA levels, cecal contents, SPF + Vanco ([2]; 4 weeks): 1.04 ± 0.903 µmol/g
CN[C@H](CC(C)C)C(=O)N[C@H]1C(=O)N[C@@H](CC(N)=O)C(=O)N[C@H]2C(=O)N[C@H]3C(=O)N[C@H](C(=O)N[C@H](C(=O)O)c4cc(O)cc(O)c4-c4cc3ccc4O)[C@H](O)c3ccc(c(Cl)c3)Oc3cc2cc(c3O[C@@H]2O[C@H](CO)[C@@H](O)[C@H](O)[C@H]2O[C@H]2C[C@](C)(N)[C@H](O)[C@H](C)O2)Oc2ccc(cc2Cl)[C@H]1O [vancomycin, reference compound] |  |  |  |  |  |  |  |  |  |  |  | cTreg level (colonic Treg (cTreg)): reduced
